From patent US20230123334A1, “AMINO LIPID COMPOUND, PREPARATION METHOD THEREFOR, AND APPLICATION THEREOF” (SHENZHEN SHENXIN BIOTECHNOLOGY CO., LTD., priority 2020, published 2023) come the findings set out here.

The test deals with HEK293 cells. The test is described as follows: Preliminary screening as mRNA vectors, EGFP mRNA transfection of HEK293 cells. It is filed as cell-based. The conditions noted are these: EGFP mRNA 50 ng per well, 96-well plates; percentage of GFP fluorescent cells relative to total number of cells (Hoechst). A digest of the protocol:
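Each well of HEK293 cells received 50 ng of EGFP mRNA. Efficiency was expressed as percent GFP-expressing cells over Hoechst-defined total cell number.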

SMILES strings stand for the structures.

On to `CCCCCCCCCCCCCCCCNc1nc(NCCN2CCCCC2)nc(SCCCCCCCCCCCC)n1` [Compound D4S12N16], for which the “Absolute mRNA transfection efficiency in HEK293 cells” value (shortened to “Absolute mRNA transfection efficiency”) came out at 1.3%. Consider `CCCCCCCCCCCCCCCCCCNc1nc(NCCN2CCCCC2)nc(SCCCCCCCCCCCC)n1` [Compound D4S12N18], for which the “Absolute mRNA transfection efficiency” value is 4.6%. To `CCCCCCCCCCCCCCSc1nc(NCCCCCC)nc(NCCN2CCCCC2)n1` [Compound D4S14N6] belongs 3.0%; to `CCCCCCCCCCCCCCSc1nc(NCCCCCCC)nc(NCCN2CCCCC2)n1` [Compound D4S14N7], 4.5%.

Take `CCCCCCCCCCCCCCSc1nc(NCCCCCCCC)nc(NCCN2CCCCC2)n1` [Compound D4S14N8]: the “Absolute mRNA transfection efficiency” value is recorded as 3.2%. `CCCCCCCCCCCCCCSc1nc(NCCCCCCCCC)nc(NCCN2CCCCC2)n1` [Compound D4S14N9]: the “Absolute mRNA transfection efficiency” value is 4.0%. To `CCCCCCCCCCCCCCSc1nc(NCCCCCCCCCCC)nc(NCCN2CCCCC2)n1` [Compound D4S14N11] belongs 3.8%; to `CCCCCCCCCCCCCCSc1nc(NCCCCCCCCCCCC)nc(NCCN2CCCCC2)n1` [Compound D4S14N12], 12.6%; to `CCCCCCCCCCCCCCSc1nc(NCCCCCCCCCCCCC)nc(NCCN2CCCCC2)n1` [Compound D4S14N13], 14.5%.

Turning to `CCCCCCCCCCCCCCCNc1nc(NCCN2CCCCC2)nc(SCCCCCCCCCCCCCC)n1` [Compound D4S14N15], the “Absolute mRNA transfection efficiency” value was 1.7%. On to `CCCCCCCCCCCCCCCCNc1nc(NCCN2CCCCC2)nc(SCCCCCCCCCCCCCC)n1` [Compound D4S14N16], for which the “Absolute mRNA transfection efficiency” value worked out at 1.4%. To `CCCCCCCCCCCCCCCCCCNc1nc(NCCN2CCCCC2)nc(SCCCCCCCCCCCCCC)n1` [Compound D4S14N18] belongs 2.2%; to `CCCCCCCCCCCCCCCSc1nc(NCCCCCC)nc(NCCN2CCCCC2)n1` [Compound D4S15N6], 1.3%; to `CCCCCCCCCCCCCCCSc1nc(NCCCCCCC)nc(NCCN2CCCCC2)n1` [Compound D4S15N7], 1.2%.

Regarding `CCCCCCCCCCCCCCCSc1nc(NCCCCCCCC)nc(NCCN2CCCCC2)n1` [Compound D4S15N8], the “Absolute mRNA transfection efficiency” value came to 1.6%.

Turning to `CCCCCCCCCCCCCCCSc1nc(NCCCCCCCCC)nc(NCCN2CCCCC2)n1` [Compound D4S15N9], the “Absolute mRNA transfection efficiency” value came out at 1.8%. Take `CCCCCCCCCCCCCCCSc1nc(NCCCCCCCCCCC)nc(NCCN2CCCCC2)n1` [Compound D4S15N11]: the “Absolute mRNA transfection efficiency” value turned out to be 1.0%.

As for `CCCCCCCCCCCCCCCSc1nc(NCCCCCCCCCCCC)nc(NCCN2CCCCC2)n1` [Compound D4S15N12], the “Absolute mRNA transfection efficiency” value was 1.6%.

For the compound `CCCCCCCCCCCCCCCSc1nc(NCCCCCCCCCCCCC)nc(NCCN2CCCCC2)n1` [Compound D4S15N13], the “Absolute mRNA transfection efficiency” value worked out at 0.8%. For `CCCCCCCCCCCCCCCNc1nc(NCCN2CCCCC2)nc(SCCCCCCCCCCCCCCC)n1` [Compound D4S15N15], the “Absolute mRNA transfection efficiency” value is 3.5%.

In the case of `CCCCCCCCCCCCCCCCNc1nc(NCCN2CCCCC2)nc(SCCCCCCCCCCCCCCC)n1` [Compound D4S15N16], the “Absolute mRNA transfection efficiency” value worked out at 4.8%.

Consider `CCCCCCCCCCCCCCCCCCNc1nc(NCCN2CCCCC2)nc(SCCCCCCCCCCCCCCC)n1` [Compound D4S15N18], for which the “Absolute mRNA transfection efficiency” value is given as 5.1%. Take `CCCCCCCCCCCCCCCCSc1nc(NCCCCCC)nc(NCCN2CCCCC2)n1` [Compound D4S16N6]: the “Absolute mRNA transfection efficiency” value stood at 2.6%.

Take `CCCCCCCCCCCCCCCCSc1nc(NCCCCCCC)nc(NCCN2CCCCC2)n1` [Compound D4S16N7]: the “Absolute mRNA transfection efficiency” value worked out at 0.8%.

For the compound `CCCCCCCCCCCCCCCCSc1nc(NCCCCCCCC)nc(NCCN2CCCCC2)n1` [Compound D4S16N8], the “Absolute mRNA transfection efficiency” value is 1.3%. `CCCCCCCCCCCCCCCCSc1nc(NCCCCCCCCC)nc(NCCN2CCCCC2)n1` [Compound D4S16N9]: the “Absolute mRNA transfection efficiency” value was found to be 1.0%. As for `CCCCCCCCCCCCCCCCSc1nc(NCCCCCCCCCCC)nc(NCCN2CCCCC2)n1` [Compound D4S16N11], the “Absolute mRNA transfection efficiency” value is 0.5%. On to `CCCCCCCCCCCCCCCCSc1nc(NCCCCCCCCCCCC)nc(NCCN2CCCCC2)n1` [Compound D4S16N12], for which the “Absolute mRNA transfection efficiency” value amounted to 0.1%. With `CCCCCCCCCCCCCCCCSc1nc(NCCCCCCCCCCCCC)nc(NCCN2CCCCC2)n1` [Compound D4S16N13], the “Absolute mRNA transfection efficiency” value is recorded as 0.1%. As for `CCCCCCCCCCCCCCCCSc1nc(NCCCCCCCCCCCCCCC)nc(NCCN2CCCCC2)n1` [Compound D4S16N15], the “Absolute mRNA transfection efficiency” value is on record as 0.1%. As for `CCCCCCCCCCCCCCCCNc1nc(NCCN2CCCCC2)nc(SCCCCCCCCCCCCCCCC)n1` [Compound D4S16N16], the “Absolute mRNA transfection efficiency” value was 3.6%.

For `CCCCCCCCCCCCCCCCCCNc1nc(NCCN2CCCCC2)nc(SCCCCCCCCCCCCCCCC)n1` [Compound D4S16N18], the “Absolute mRNA transfection efficiency” value came to 6.3%. As for `CCCCCCCCCCCCCCCCCCSc1nc(NCCCCCC)nc(NCCN2CCCCC2)n1` [Compound D4S18N6], the “Absolute mRNA transfection efficiency” value is listed as 1.5%. Regarding `CCCCCCCCCCCCCCCCCCSc1nc(NCCCCCCC)nc(NCCN2CCCCC2)n1` [Compound D4S18N7], the “Absolute mRNA transfection efficiency” value was determined as 0.3%.

With `CCCCCCCCCCCCCCCCCCSc1nc(NCCCCCCCCC)nc(NCCN2CCCCC2)n1` [Compound D4S18N9], the “Absolute mRNA transfection efficiency” value is 0.2%.

As for `CCCCCCCCCCCCCCCCCCSc1nc(NCCCCCCCCCCC)nc(NCCN2CCCCC2)n1` [Compound D4S18N11], the “Absolute mRNA transfection efficiency” value was found to be 0.9%. In the case of `CCCCCCCCCCCCCCCCCCSc1nc(NCCCCCCCCCCCC)nc(NCCN2CCCCC2)n1` [Compound D4S18N12], the “Absolute mRNA transfection efficiency” value is given as 0.7%. Turning to `CCCCCCCCCCCCCCCCCCSc1nc(NCCCCCCCCCCCCC)nc(NCCN2CCCCC2)n1` [Compound D4S18N13], the “Absolute mRNA transfection efficiency” value is 0.7%. On to `CCCCCCCCCCCCCCCCCCSc1nc(NCCCCCCCCCCCCCCC)nc(NCCN2CCCCC2)n1` [Compound D4S18N15], for which the “Absolute mRNA transfection efficiency” value was determined as 1.6%. Regarding `CCCCCCCCCCCCCCCCCCSc1nc(NCCCCCCCCCCCCCCCC)nc(NCCN2CCCCC2)n1` [Compound D4S18N16], the “Absolute mRNA transfection efficiency” value was found to be 0.4%. To `CCCCCCCCCCCCCCCCCCNc1nc(NCCN2CCCCC2)nc(SCCCCCCCCCCCCCCCCCC)n1` [Compound D4S18N18] belongs 0.2%; to `CCCCCCNc1nc(NCCN2CCN(C)CC2)nc(SCCCCCC)n1` [Compound D5S6N6], 2.1%. As for `CCCCCCCNc1nc(NCCN2CCN(C)CC2)nc(SCCCCCC)n1` [Compound D5S6N7], the “Absolute mRNA transfection efficiency” value was 4.3%. As to `CCCCCCCCNc1nc(NCCN2CCN(C)CC2)nc(SCCCCCC)n1` [Compound D5S6N8], the “Absolute mRNA transfection efficiency” value is 5.9%.

Consider `CCCCCCCCCNc1nc(NCCN2CCN(C)CC2)nc(SCCCCCC)n1` [Compound D5S6N9], for which the “Absolute mRNA transfection efficiency” value came to 2.0%. The result for `CCCCCCCCCCCNc1nc(NCCN2CCN(C)CC2)nc(SCCCCCC)n1` [Compound D5S6N11] reads 5.3%; that for `CCCCCCCCCCCCNc1nc(NCCN2CCN(C)CC2)nc(SCCCCCC)n1` [Compound D5S6N12], 4.4%; that for `CCCCCCCCCCCCCNc1nc(NCCN2CCN(C)CC2)nc(SCCCCCC)n1` [Compound D5S6N13], 7.2%.

As to `CCCCCCCCCCCCCCCNc1nc(NCCN2CCN(C)CC2)nc(SCCCCCC)n1` [Compound D5S6N15], the “Absolute mRNA transfection efficiency” value came out at 16.4%.

For `CCCCCCCCCCCCCCCCNc1nc(NCCN2CCN(C)CC2)nc(SCCCCCC)n1` [Compound D5S6N16], the “Absolute mRNA transfection efficiency” value was 35.4%.

As to `CCCCCCCCCCCCCCCCCCNc1nc(NCCN2CCN(C)CC2)nc(SCCCCCC)n1` [Compound D5S6N18], the “Absolute mRNA transfection efficiency” value is 16.6%. Take `CCCCCCSc1nc(NCCN2CCN(C)CC2)nc(SCCCCCC)n1` [Compound D5S6S6]: the “Absolute mRNA transfection efficiency” value is listed as 4.3%.

Take `CCCCCCCSc1nc(NCCN2CCN(C)CC2)nc(SCCCCCC)n1` [Compound D5S6S7]: the “Absolute mRNA transfection efficiency” value came out at 10.0%. Turning to `CCCCCCCCSc1nc(NCCN2CCN(C)CC2)nc(SCCCCCC)n1` [Compound D5S6S8], the “Absolute mRNA transfection efficiency” value worked out at 8.7%. Take `CCCCCCCCCSc1nc(NCCN2CCN(C)CC2)nc(SCCCCCC)n1` [Compound D5S6S9]: the “Absolute mRNA transfection efficiency” value stood at 8.3%. Turning to `CCCCCCCCCCSc1nc(NCCN2CCN(C)CC2)nc(SCCCCCC)n1` [Compound D5S6S10], the “Absolute mRNA transfection efficiency” value stood at 10.1%.

Regarding `CCCCCCCCCCCSc1nc(NCCN2CCN(C)CC2)nc(SCCCCCC)n1` [Compound D5S6S11], the “Absolute mRNA transfection efficiency” value came out at 21.1%. Turning to `CCCCCCCCCCCCSc1nc(NCCN2CCN(C)CC2)nc(SCCCCCC)n1` [Compound D5S6S12], the “Absolute mRNA transfection efficiency” value is reported as 14.0%.

For `CCCCCCCCCCCCCCSc1nc(NCCN2CCN(C)CC2)nc(SCCCCCC)n1` [Compound D5S6S14], the “Absolute mRNA transfection efficiency” value was 45.3%. `CCCCCCCCCCCCCCCSc1nc(NCCN2CCN(C)CC2)nc(SCCCCCC)n1` [Compound D5S6S15]: the “Absolute mRNA transfection efficiency” value was 29.7%.
